Measurements reported in patent publication EP0326331B1, “Substituted quinolines and cinnolines” (Dow AgroSciences LLC, priority 1988, dated 1989).

Legend:
Type in all cases: in vivo
[1] = tested on: Venturia inaequalis (apple scab); assay: Test 1 greenhouse foliar spray screen, apple scab on apple seedling; conditions: disease control rating, foliar spray on apple seedling, 400 ppm (+++ at 100 ppm)
[2] = tested on: Twospotted spider mites (Tetranychus urticae Koch); assay: Mite/insect screen, SM; conditions: percent mortality, SAW; for mortality at 200 ppm / mortality at 400 ppm: Tetranychus urticae, read-out: SM RESULTS %; for mortality at 400 ppm: SM & MA RATE 400 PPM
Summary of the method: (§1)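 Foliar spray to runoff (10 psi), 1 h drying; aqueous dilutions from acetone/alcohol emulsifier stock. Mortality (%) after standard exposure.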

corn rootworm = assay: Mite/insect screen, CRW; conditions: percent mortality; for mortality at 12 ppm / mortality at 24 ppm: read-out: CRW RESULTS %; for mortality at 24 ppm: CRW RATE 24.00 PPM
Summary of the method: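 Following dissolution in equal parts acetone and alcohol with 23 g/L and 13 g/L emulsifier blends and dilution with water, test solutions were scored for percent mortality at the end of standard exposures.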

[3] = tested on: Pseudoperonospora cubensis (downy mildew); assay: Test 1 greenhouse foliar spray screen, downy mildew on squash; conditions: disease control rating, foliar spray on squash, 400 ppm (+++ at 100 ppm)
[4] = tested on: Pyricularia oryzae (rice blast); assay: whole plant or invertebrate; conditions: disease control rating, foliar spray on rice, 400 ppm (+++ at 100 ppm)
[5] = tested on: Septoria tritici (leaf blotch); assay: Test 1 greenhouse foliar spray screen, leaf blotch on wheat; conditions: disease control rating, foliar spray on wheat, 400 ppm (+++ at 100 ppm)
[6] = tested on: melon aphids (Aphis gossypii Glover); assay: Mite/insect screen, MA; conditions: percent mortality, SAW; for mortality at 200 ppm / mortality at 400 ppm: Aphis gossypii, read-out: MA RESULTS %; for mortality at 400 ppm: SM & MA RATE 400 PPM
Summary of the method: as §1

[7] = tested on: Puccinia recondita tritici (leaf rust); assay: Test 1 greenhouse foliar spray screen, leaf rust on wheat; conditions: disease control rating, foliar spray on wheat, 400 ppm (+++ at 100 ppm)
[8] = tested on: Cercospora beticola (leaf spot); assay: Test 1 greenhouse foliar spray screen, leaf spot on sugar beet; conditions: disease control rating, foliar spray on sugar beet, 400 ppm (+++ at 100 ppm)
[9] = tested on: Erysiphe graminis tritici (powdery mildew); assay: Test 1 greenhouse foliar spray screen, powdery mildew on wheat; conditions: disease control rating, foliar spray on wheat, 400 ppm (+++ at 100 ppm)
[10] = tested on: Botrytis cinerea (gray mold); assay: Test 1 greenhouse foliar spray screen, gray mold on grape berries; conditions: disease control rating, spray on grape berries, 400 ppm (+++ at 100 ppm)
[11] = tested on: southern armyworm (Spodopetra eridania Cramer); assay: Mite/insect screen, SAW; conditions: percent mortality, SAW; for mortality at 200 ppm / mortality at 400 ppm: Spodoptera eridania, read-out: SAW RESULTS %; for mortality at 400 ppm: SM & MA RATE 400 PPM
Summary of the method: as §1

| SMILES | APPL SCAB [1] | mortality at 200 ppm ([2]; SM & MA RATE 200 PPM) [%] | mortality at 400 ppm [2] [%] | mortality at 12 ppm (corn rootworm; CRW RATE 12.00 PPM) [%] | mortality at 24 ppm (corn rootworm) [%] | DOWN MDEW [3] | RICE BLAST [4] | LEAF BLOT [5] | mortality at 200 ppm ([6]; SM & MA RATE 200 PPM) [%] | mortality at 400 ppm [6] [%] | LEAF RUST [7] | LEAF SPOT [8] | POWD MDEW [9] | GRAY MOLD [10] | mortality at 200 ppm ([11]; SM & MA RATE 200 PPM) [%] | mortality at 400 ppm [11] [%] | SM RESULTS % ([2]; SM & MA RATE 200 PPM) [%] | CRW RESULTS % (corn rootworm; CRW RATE 12.00 PPM) [%] | MA RESULTS % ([6]; SM & MA RATE 200 PPM) [%] | SAW RESULTS % ([11]; SM & MA RATE 200 PPM) [%] |
| --- | --- | --- | --- | --- | --- | --- | --- | --- | --- | --- | --- | --- | --- | --- | --- | --- | --- | --- | --- | --- |
| Fc1cccc2c(NCCCCc3ccc(Cl)cc3)ccnc12 [Example 140, 8-fluoro-N-[4-(4-chlorophenyl)butyl]-4-quinolinamine] | + (20-89% control at 400 ppm) | 0 | 0 | 0 | 0 | +++ (90-100% control at 100 ppm) | +++ (90-100% control at 100 ppm) | +++ (90-100% control at 100 ppm) | 0 | 0 | +++ (90-100% control at 100 ppm) | +++ (90-100% control at 100 ppm) | + (20-89% control at 400 ppm) | - (0-19% control at 400 ppm) | 0 | 60 | – | – | – | – |
| Fc1cccc2c(NCCC3=CCCCC3)ccnc12 [Example 143, N-[2-(1-cyclohexenyl)ethyl]-8-fluoro-4-quinolinamine] | - (0-19% control at 400 ppm) | 0 | 0 | 0 | 0 | +++ (90-100% control at 100 ppm) | ++ (90-100% control at 400 ppm) | + (20-89% control at 400 ppm) | 0 | 0 | +++ (90-100% control at 100 ppm) | + (20-89% control at 400 ppm) | ++ (90-100% control at 400 ppm) | - (0-19% control at 400 ppm) | 0 | 0 | – | – | – | – |
| Cc1cc(C)c2nccc(NCCC3=CCCCC3)c2c1 [Example 144, N-[2-(1-cyclohexenyl)ethyl]-6,8-dimethyl-4-quinolinamine] | + (20-89% control at 400 ppm) | 0 | 0 | 0 | 0 | +++ (90-100% control at 100 ppm) | + (20-89% control at 400 ppm) | - (0-19% control at 400 ppm) | 0 | 0 | ++ (90-100% control at 400 ppm) | + (20-89% control at 400 ppm) | - (0-19% control at 400 ppm) | - (0-19% control at 400 ppm) | 0 | 0 | – | – | – | – |
| CCc1ccc2nccc(NCCC3=CCCCC3)c2c1 [Example 145, N-[2-(1-cyclohexenyl)ethyl]-6-ethyl-4-quinolinamine] | - (0-19% control at 400 ppm) | 0 | 0 | 0 | 0 | +++ (90-100% control at 100 ppm) | + (20-89% control at 400 ppm) | - (0-19% control at 400 ppm) | 0 | 0 | + (20-89% control at 400 ppm) | + (20-89% control at 400 ppm) | - (0-19% control at 400 ppm) | - (0-19% control at 400 ppm) | 0 | 0 | – | – | – | – |
| c1csc(CCNc2ccnc3ccccc23)c1 [Example 147, N-[2-(2-thienyl)ethyl]-4-quinolinamine] | - (0-19% control at 400 ppm) | 0 | – | 0 | – | +++ (90-100% control at 100 ppm) | + (20-89% control at 400 ppm) | - (0-19% control at 400 ppm) | 0 | – | + (20-89% control at 400 ppm) | - (0-19% control at 400 ppm) | - (0-19% control at 400 ppm) | - (0-19% control at 400 ppm) | 0 | – | – | – | – | – |
| c1ccc2c(NCCc3ccsc3)ccnc2c1 [Example 148, N-[2-(3-thienyl)ethyl]-4-quinolinamine] | - (0-19% control at 400 ppm) | 0 | – | 0 | – | ++ (90-100% control at 400 ppm) | + (20-89% control at 400 ppm) | - (0-19% control at 400 ppm) | 0 | – | + (20-89% control at 400 ppm) | + (20-89% control at 400 ppm) | - (0-19% control at 400 ppm) | - (0-19% control at 400 ppm) | 0 | – | – | – | – | – |
| Fc1cc(F)c2nccc(NCCc3cccs3)c2c1 [Example 149, 6,8-difluoro-N-[2-(2-thienyl)ethyl]-4-quinolinamine] | - (0-19% control at 400 ppm) | 0 | – | 0 | – | ++ (90-100% control at 400 ppm) | + (20-89% control at 400 ppm) | + (20-89% control at 400 ppm) | 0 | – | ++ (90-100% control at 400 ppm) | +++ (90-100% control at 100 ppm) | + (20-89% control at 400 ppm) | - (0-19% control at 400 ppm) | 0 | – | – | – | – | – |
| Fc1cc(F)c2nccc(NCCc3ccsc3)c2c1 [Example 150, 6,8-difluoro-N-[2-(3-thienyl)ethyl]-4-quinolinamine] | - (0-19% control at 400 ppm) | 0 | – | 0 | – | ++ (90-100% control at 400 ppm) | + (20-89% control at 400 ppm) | +++ (90-100% control at 100 ppm) | 0 | – | ++ (90-100% control at 400 ppm) | +++ (90-100% control at 100 ppm) | + (20-89% control at 400 ppm) | - (0-19% control at 400 ppm) | 0 | – | 0 | 0 | 0 | 0 |
| c1ccc2c(CCNc3ccnc4ccccc34)cccc2c1 [Example 151, N-[2-(1-naphthyl)ethyl]-4-quinolinamine] | - (0-19% control at 400 ppm) | 0 | – | 0 | – | +++ (90-100% control at 100 ppm) | + (20-89% control at 400 ppm) | + (20-89% control at 400 ppm) | 0 | – | ++ (90-100% control at 400 ppm) | + (20-89% control at 400 ppm) | + (20-89% control at 400 ppm) | - (0-19% control at 400 ppm) | 0 | – | – | – | – | – |
